Data: US7851474B2, “Dipiperazinyl ketones and related analogues” (Neurogen Corporation, priority 2005, dated 2010)

target: T1, chimeric human H3 receptor (Homo sapiens, UniProt Q9Y5N1, E19D); assay: Chimeric human H3 receptor GTP binding assay (agonist-stimulated GTP-gamma35S binding, Example 7); format: biochemical; details: "*" in Ki of Table II; assay of Example 7; read-out: Ki
T1 construct: made in house; host or cells: Sf9 insect cells (baculovirus infection); P2 membrane preparation
Method in brief: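 IC50 values come from non-linear regression of dose-response curves of filter-bound GTP-gamma^35S, counted by scintillation. Membranes were from infected Sf9 cells carrying receptor plus G-protein subunits, 35 μg/tube, with 10 μM GDP present.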

T1 sequence (Q9Y5N1 with tags, fused parts or gaps E19D): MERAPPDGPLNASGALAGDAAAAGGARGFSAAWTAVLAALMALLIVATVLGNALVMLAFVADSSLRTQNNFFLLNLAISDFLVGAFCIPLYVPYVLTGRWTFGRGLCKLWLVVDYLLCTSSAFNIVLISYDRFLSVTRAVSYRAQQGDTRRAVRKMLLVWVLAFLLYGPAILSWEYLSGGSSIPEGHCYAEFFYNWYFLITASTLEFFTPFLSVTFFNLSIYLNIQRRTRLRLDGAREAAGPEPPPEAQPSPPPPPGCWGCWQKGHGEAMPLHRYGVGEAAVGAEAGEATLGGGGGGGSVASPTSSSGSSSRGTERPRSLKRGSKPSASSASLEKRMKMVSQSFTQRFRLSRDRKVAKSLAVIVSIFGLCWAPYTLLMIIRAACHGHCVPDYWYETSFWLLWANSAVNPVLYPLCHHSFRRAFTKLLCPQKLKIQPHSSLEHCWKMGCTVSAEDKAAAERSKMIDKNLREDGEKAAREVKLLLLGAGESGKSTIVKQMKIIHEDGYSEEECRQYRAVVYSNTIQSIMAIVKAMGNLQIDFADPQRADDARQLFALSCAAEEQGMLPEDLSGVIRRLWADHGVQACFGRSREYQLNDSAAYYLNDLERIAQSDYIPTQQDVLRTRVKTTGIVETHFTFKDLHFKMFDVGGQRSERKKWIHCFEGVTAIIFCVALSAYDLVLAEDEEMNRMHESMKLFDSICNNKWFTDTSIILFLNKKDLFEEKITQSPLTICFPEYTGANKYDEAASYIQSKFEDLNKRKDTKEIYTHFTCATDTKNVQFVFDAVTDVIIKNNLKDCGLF

Ki [nM]	Compound
< 1000	O=C(CN1CCN(c2cccc(-c3ccccc3)c2)CC1)N1CCN(C2CCC2)CC1 [Compound 493, 1-biphenyl-3-yl-4-[2-(4-cyclobutylpiperazin-1-yl)-2-oxoethyl]piperazine]

same assay, conditions: Table II "Ki", symbol "*": Ki in the assay of Example 7; read-out: Ki

Compound	Ki [nM]
COc1ccc(-c2ccc(N3CCN(CC(=O)N4CCN(C5CCC5)CC4)CC3)cc2)cc1 [Compound 781, 1-cyclobutyl-4-{[4-(4′-methoxybiphenyl-4-yl)piperazin-1-yl]acetyl}piperazine]	< 1000
Cc1ccc(N2CCN(CC(=O)N3CCN(C4CCC4)CC3)CC2)cc1 [Compound 785, 1-cyclobutyl-4-{[4-(4-methylphenyl)piperazin-1-yl]acetyl}piperazine]	< 1000
O=C(CN1CCN(c2ccc([N+](=O)[O-])cc2)CC1)N1CCN(C2CCCCC2)CC1 [Compound 825, 1-cyclohexyl-4-{[4-(4-nitrophenyl)piperazin-1-yl]acetyl}piperazine]	< 1000
O=C(CN1CCN(c2ccc([N+](=O)[O-])cc2)CC1)N1CCN(C2CCCC2)CC1 [Compound 840, 1-cyclopentyl-4-{[4-(4-nitrophenyl)piperazin-1-yl]acetyl}piperazine]	< 1000
CS(=O)(=O)c1ccc(N2CCN(CC(=O)N3CCN(C4CCCC4)CC3)CC2)cc1 [Compound 828, 1-cyclopentyl-4-({4-[4-(methylsulfonyl)phenyl]piperazin-1-yl}acetyl)piperazine]	< 1000

Next, values leading:

Ki [nM]	Compound
< 1000	COc1ccc(Cl)cc1-c1cnc(N2CCN(CC(=O)N3CCN(C4CCC4)CC3)CC2)cn1 [Compound 911, 2-(5-chloro-2-methoxyphenyl)-5-{4-[2-(4-cyclobutylpiperazin-1-yl)-2-oxoethyl]piperazin-1-yl}pyrazine]
< 1000	CCC(C)N1CCN(C(=O)CN2CCN(c3ccc(F)cc3)CC2)CC1 (centres unmarked) [Compound 880, 1-sec-butyl-4-{[4-(4-fluorophenyl)piperazin-1-yl]acetyl}piperazine]

same assay, conditions: Table II, "*" in Ki; assay of Example 7; read-out: Ki

Ki [nM]	Compound
< 1000	CC1CCCCN1C(=O)c1cccc(N2CCN(CC(=O)N3CCN(C4CCC4)CC3)CC2)c1 (centres unmarked) [Compound 639, 1-cyclobutyl-4-[(4-{3-[(2-methylpiperidin-1-yl)carbonyl]phenyl}piperazin-1-yl)acetyl]piperazine]
< 1000	O=C(CN1CCN(c2ccccc2)CC1)N1CCN(C2CCC2)CC1 [Compound 657, 1-cyclobutyl-4-[(4-phenylpiperazin-1-yl)acetyl]piperazine]
< 1000	Cc1ccc(-c2ccc(N3CCN(CC(=O)N4CCN(C5CCC5)CC4)CC3)cc2)c(F)c1 [Compound 704, 1-cyclobutyl-4-{[4-(2′-fluoro-4′-methylbiphenyl-4-yl)piperazin-1-yl]acetyl}piperazine]
< 1000	CCC1CCCCN1C(=O)c1ccc(N2CCN(CC(=O)N3CCN(C4CCC4)CC3)CC2)nc1 (centres unmarked) [Compound 650, 1-cyclobutyl-4-[(4-{5-[(2-ethylpiperidin-1-yl)carbonyl]pyridin-2-yl}piperazin-1-yl)acetyl]piperazine]
< 1000	Cc1cccc(N2CCN(CC(=O)N3CCN(C4CCC4)CC3)CC2)c1 [Compound 763, 1-cyclobutyl-4-{[4-(3-methylphenyl)piperazin-1-yl]acetyl}piperazine]
< 1000	O=C(CN1CCN(c2ccc(-c3ccccc3Oc3ccccc3)cc2)CC1)N1CCN(C2CCC2)CC1 [Compound 719, 1-cyclobutyl-4-{[4-(2′-phenoxybiphenyl-4-yl)piperazin-1-yl]acetyl}piperazine]
< 1000	Cc1ccc(F)c(-c2ccc(N3CCN(CC(=O)N4CCN(C5CCC5)CC4)CC3)cc2)c1 [Compound 705, 1-cyclobutyl-4-{[4-(2′-fluoro-5′-methylbiphenyl-4-yl)piperazin-1-yl]acetyl}piperazine]

same assay, conditions: Table II; assay of Example 7; "*" in Ki; read-out: Ki

Ki [nM]	Compound
< 1000	O=C(CN1CCN(c2cnc(-c3cccc(Cl)c3Cl)cn2)CC1)N1CCN(C2CCC2)CC1 [Compound 967, 2-{4-[2-(4-cyclobutylpiperazin-1-yl)-2-oxoethyl]piperazin-1-yl}-5-(2,3-dichlorophenyl)pyrazine]
< 1000	COc1ccc(OC)c(-c2ccc(N3CCN(CC(=O)N4CCN(C5CCC5)CC4)CC3)nn2)c1 [Compound 1041, 3-{4-[2-(4-cyclobutylpiperazin-1-yl)-2-oxoethyl]piperazin-1-yl}-6-(2,5-dimethoxyphenyl) pyridazine]
< 1000	O=C(CN1CCC(N2CCOCC2)CC1)N1CCN(C2CCC2)CC1 [Compound 1115, 4-{1-[2-(4-cyclobutylpiperazin-1-yl)-2-oxoethyl]piperidin-4-yl}morpholine]
< 1000	O=C(NC1CCCC1)c1cccc(N2CCN(CC(=O)N3CCN(C4CCC4)CC3)CC2)c1 [Compound 1081, 3-{4-[2-(4-cyclobutylpiperazin-1-yl)-2-oxoethyl]piperazin-1-yl}-N-cyclopentylbenzamide]
< 1000	CCCCCNC(=O)c1cccc(N2CCN(CC(=O)N3CCN(C4CCC4)CC3)CC2)c1 [Compound 1075, 3-{4-[2-(4-cyclobutylpiperazin-1-yl)-2-oxoethyl]piperazin-1-yl}-N-pentylbenzamide]
< 1000	COc1ccc(F)cc1-c1ccc(N2CCN(CC(=O)N3CCN(C4CCC4)CC3)CC2)nn1 [Compound 1045, 3-{4-[2-(4-cyclobutylpiperazin-1-yl)-2-oxoethyl]piperazin-1-yl}-6-(5-fluoro-2-methoxyphenyl) pyridazine]

same assay, conditions: assay of Example 7; "*" in Ki of Table II; read-out: Ki

Ki [nM]	Compound
< 1000	CC(=O)NC1CCN(CC(=O)N2CCN(C(C)C)CC2)C1 (centres unmarked) [Compound 1259, N-{1-[2-(4-isopropylpiperazin-1-yl)-2-oxoethyl]pyrrolidin-3-yl}acetamide]
< 1000	O=C1CCc2cc(N3CCN(CC(=O)N4CCN(C5CCCC5)CC4)CC3)ccc21 [Compound 1160, 5-{4-[2-(4-cyclopentylpiperazin-1-yl)-2-oxoethyl]piperazin-1-yl}indan-1-one]
< 1000	N#Cc1ccc(N2CCN(CC(=O)N3CCN(C4CCC4)CC3)CC2)nn1 [Compound 1189, 6-{4-[2-(4-cyclobutylpiperazin-1-yl)-2-oxoethyl]piperazin-1-yl}pyridazine-3-carbonitrile]
< 1000	O=C(NC1CCN(CC(=O)N2CCN(C3CCC3)CC2)C1)c1ccc(Oc2ccccc2)cc1 (centres unmarked) [Compound 1244, N-{1-[2-(4-cyclobutylpiperazin-1-yl)-2-oxoethyl]pyrrolidin-3-yl}-4-phenoxybenzamide]
< 1000	CC(=O)c1ccc(N2C[C@@H](C)N(CC(=O)N3CCN(C4CCC4)CC3)C[C@@H]2C)cc1 (relative stereo) [Compound 1269, rel-1-(4-{(2R,5S)-4-[2-(4-cyclobutylpiperazin-1-yl)-2-oxoethyl]-2,5-dimethylpiperazin-1-yl}phenyl)ethanone]

same assay, conditions: assay of Example 7; symbol * in column headed Ki of Table II; read-out: Ki

Ki [nM]	Compound
< 1000	CCN1CCN(C(=O)CN2CCN(c3ccc(Br)c(OC)c3)CC2)CC1 [Compound 335, 1-(4-bromo-3-methoxyphenyl)-4-[2-(4-ethylpiperazin-1-yl)-2-oxoethyl]piperazine]
< 1000	CC(C)N1CCN(C(=O)CN2CCN(c3ccc(Cl)cc3)CC2)CC1 [Compound 360, 1-(4-chlorophenyl)-4-[2-(4-isopropylpiperazin-1-yl)-2-oxoethyl]piperazine]
< 1000	Cc1cc(N2CCN(CC(=O)N3CCN(C4CCC4)CC3)CC2)ccc1Cl [Compound 349, 1-(4-chloro-3-methylphenyl)-4-[2-(4-cyclobutylpiperazin-1-yl)-2-oxoethyl]piperazine]
